ChEMBL document CHEMBL1201862, “PubChem BioAssay data set” (2004)
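Each compound was tested at five concentrations against cells in 96-well plates for 48 hours. GI50: concentration for 50% inhibition of growth.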 Calls of active or inactive are those of the source. Rule as the data show it: active = GI50 up to about 1.1 µM and inactive = higher.

Columns and labels:
Experiment in all cases: DTP human tumour cell line panel, 48 h
[1] = system: U-251
[2] = system: IGROV-1
[3] = system: SK-MEL-2
[4] = system: NCI/ADR-RES
[5] = system: HL-60
[6] = system: CCRF-CEM
[7] = system: OVCAR-4
[8] = system: NCI-H23
[9] = system: OVCAR-8
[10] = system: MOLT-4
[11] = system: HCC 2998
[12] = system: HCT-116
[13] = system: PC-3
[14] = system: A549
[15] = system: NCI-H460
[16] = system: SW-620
[17] = system: MDA-MB-435
[18] = system: SNB-75
[19] = system: BT-549

Measured: GI50

Cc1ccc(S(=O)(=O)N/N=C2\CC3C4C=CC3C2C4)cc1 (stereo not drawn)
inactive: [1] > 100 µM | [2] > 100 µM | [3] > 100 µM | [4] > 100 µM | [5] > 100 µM | [6] > 100 µM | [7] > 100 µM | [8] > 100 µM | [9] > 100 µM | [10] > 100 µM | [11] > 100 µM | [12] > 100 µM | [13] > 100 µM | [14] > 100 µM | [15] > 100 µM | [16] > 100 µM | [17] > 100 µM

CC(C)(C)C(=O)C(C#N)C(=O)C(C)(C)C
inactive: [1] > 100 µM | [2] > 100 µM | [18] > 100 µM | [3] > 100 µM | [4] > 100 µM | [5] > 100 µM | [6] > 100 µM | [7] > 100 µM | [8] > 100 µM | [9] > 100 µM | [10] > 100 µM | [11] > 100 µM | [12] > 100 µM | [13] > 100 µM | [14] > 100 µM | [15] > 100 µM | [16] > 100 µM | [17] > 100 µM

COc1ccccc1CC(=O)C(O)(C(F)(F)F)C(F)(F)F
inactive: [1] > 100 µM | [2] > 100 µM | [18] 12.7 µM | [3] > 100 µM | [4] > 100 µM | [5] > 100 µM | [6] > 100 µM | [7] > 100 µM | [8] > 100 µM | [9] > 100 µM | [10] > 100 µM | [11] > 100 µM | [12] > 100 µM | [13] > 100 µM | [14] > 100 µM | [15] > 100 µM | [16] > 100 µM | [17] > 100 µM

Cc1noc(C)c1/N=N/c1ccc2nonc2c1N
inactive: [2] > 100 µM | [18] 15.1 µM | [3] > 100 µM | [4] > 100 µM | [5] > 100 µM | [6] > 100 µM | [7] > 100 µM | [8] 46.5 µM | [9] > 100 µM | [10] > 100 µM | [11] > 100 µM | [12] > 100 µM | [13] > 100 µM | [14] > 100 µM | [15] > 100 µM | [16] > 100 µM | [17] > 100 µM

COc1ccc(/C(C)=C2\CCCN(Cc3ccccc3)C2)cc1
inactive: [1] 19.6 µM | [2] 28.2 µM | [18] 24.2 µM | [3] 19.1 µM | [4] 22.6 µM | [5] 23.2 µM | [6] 20.2 µM | [7] 27.2 µM | [8] 25.8 µM | [9] 18.3 µM | [10] 24.4 µM | [11] 21 µM | [13] 23 µM | [14] 32 µM | [15] 22.4 µM | [16] 19.1 µM | [17] 20.7 µM

N#Cc1sc2c(c1OC(=O)c1ccc(Cl)cc1Cl)c(=O)n(-c1ccccc1)c(=S)n2-c1ccccc1
inactive: [1] 15.4 µM | [2] 17 µM | [18] 20.8 µM | [4] 16.8 µM | [5] 19.6 µM | [6] 4.85 µM | [7] 21.5 µM | [8] 18.8 µM | [9] 19.9 µM | [10] 18.7 µM | [11] 29.2 µM | [12] 13.4 µM | [13] 25.4 µM | [14] 30.5 µM | [15] 33.3 µM | [16] 24.5 µM | [17] 19.7 µM

C/C=C/C(=O)N1C(=O)OC[C@@H]1c1ccccc1
inactive: [1] 23.1 µM | [2] 19.4 µM | [18] 12.8 µM | [3] 19.1 µM | [4] 22.4 µM | [5] 21.9 µM | [6] 23 µM | [7] 23 µM | [8] 17.2 µM | [9] 16.7 µM | [10] 25.2 µM | [11] 23.1 µM | [12] 19.9 µM | [13] 18.3 µM | [14] 19.1 µM | [16] 24.6 µM | [17] 27.4 µM

CC(=O)n1cc(OP(=O)(Oc2ccccc2)Oc2ccccc2)c2ccccc21
inactive: [1] 33.5 µM | [2] 8.53 µM | [3] 22.2 µM | [4] 16.7 µM | [5] 16 µM | [6] 22.9 µM | [7] 29.6 µM | [8] 33.3 µM | [19] 34.4 µM | [9] 39.7 µM | [10] 16.9 µM | [12] 21.4 µM | [13] 10.3 µM | [14] 32.4 µM | [15] 22.6 µM | [16] 44.2 µM | [17] 17.9 µM
